The results in this text go back to patent US12365643B2, “Phenoxy carboxylic acid compounds and medical uses thereof” (QINGDAO RISING BIOTECHNOLOGY CO., LTD, priority 2018, dated 2025).

The subject of one series is PPARγ. As to the kind of experiment: PPARγ mRNA expression by real-time quantitative PCR in HepG2. Type of series: cell-based, human. Conditions: 1 μM, 6 hours, HepG2 (FIG. 5B). The source says: Peroxisome proliferation factor activated receptor (PPAR) is an important nuclear receptor that regulates glycolipid metabolism, including three subtypes: α, β/δ and γ. Peroxisome proliferator-activated receptor γ coactivator 1α (PGC-1α) is its auxiliary transcriptional activator. Acyl-CoA oxidase 1 (ACOX1) is the first rate-limiting enzyme for fatty acid β oxidation. Fatty acid binding protein 1 (FABP1) is highly expressed in liver, and can bind fatty acid, heme and other molecules to reduce their toxicity and damage. Up-regulating the expression level of these genes helps to improve the body's metabolism, and their agonists are an important class of anti-metabolic drugs. After the compound of the present application (1 μM) and the control drug gemfibrozil (1 μM) were incubated with human liver cancer cells HepG2 for 6 hours, real-time fluorescent quantitative PCR method was used to determine the relative expression of mRNA of related genes in the cells.
The company which synthesized the primers was Suzhou Hongxun Biotechnology Co., Ltd. Tranzol reagent (Tranzol total RNA extraction reagent, TransGen Biotech) was used to extract total RNA from tissues. 5× All-In-One RT MasterMix reverse transcription kit (Abcam, USA) and real-time quantitative PCR Master Mix (Aidlab Biotechnologies Co., Ltd) were used. Bio-Rad CFX Connect™ Real-Time PCR Detection System for qPCR was used, and 2^−ΔΔCT method was used for data analysis. The expression level of mRNA in the normal control group was set to 1, and the relative expression level of mRNA in the administration group was calculated, so as to confirm whether the active compound affected the PPAR pathway, thereby further regulating lipid metabolism.

In a further series the test system is phosphorylated IRS-1. Put plainly: Phosphorylated IRS-1 level by Western blotting in HepG2. The note with it: 1 μM, 24 hours, HepG2, Western blotting (FIG. 6C). The class given is cell-based, human. The source says: (§1) Carnitine palmitoyltransferase (CPT1α) is a rate-limiting enzyme of fatty acid oxidation. When the body or tissues are lacking in energy, CPT1α catalyzes the entry of fatty acids into mitochondria for […], and at the same time, CPT1α is also involved in the regulation of fatty acid-induced insulin resistance and inflammation. Protein kinase B/glycogen synthase kinase 3β (AKT/GSK3β) signaling pathway and insulin receptor substrate 1 (IRS-1) are key signaling pathways that regulate glucose metabolism in response to insulin signal. Therefore, by determining the effects of compounds on the CPT1α protein level and the AKT, GSK3β and IRS-1 protein phosphorylation levels, it is possible to evaluate the regulatory effects of the compounds on glycolipid metabolism.
(§2) After human liver cancer cells HepG2 were incubated with the compound of the present application or the control drug at 1 μM for 24 hours, the CPT1α protein level and the AKT, GSK3β and IRS-1 phosphorylated protein levels in the cells were determined by Western blotting; after gray-scale scanning by using Image J15.0.1, normalization was performed by using β-tubulin protein level as internal control, and the quantitative analysis results were shown in FIG. 6.
(In general: In western blotting, separated proteins are transferred to a membrane and probed.)

In the next series the test system is db/db mice. As to the kind of experiment: Diabetes mellitus model (db/db mice). Type of series: in vivo, mouse. Conditions: for blood glucose level: 50 mg/kg intragastric once a day for 28 days (FIG. 7); for AHDL (high density lipoprotein) / ALDL (low density lipoprotein) / ALT / AST / BUN / CHOL (total cholesterol) / CK / CREA / TGL (triglycerides) / fat content in the liver (Oil red O and H.E. staining): intragastric once a day for 28 days; for AHDL (high density lipoprotein) / ALDL (low density lipoprotein) / ALT / AST / BUN / CHOL (total cholesterol) / CK / CREA / TGL (triglycerides): 50 mg/kg (pioglitazone 6 mg/kg); for fat content in the liver (Oil red O and H.E. staining): 50 mg/kg (pioglitazone 6 mg/kg) (FIGS. 8A-8B). From the text: Animal model: C57BL/KsJ-leprdb/leprdb diabetic (db/db) mice were widely used as animal models of type 2 diabetes mellitus, in which spontaneous mutations of leptin receptor (Leptin receptor, Lepr) caused extreme obesity, polyphagia, diabetes and polyuria. In this experiment, db/db mice (purchased from the Department of Animals, Health Science Center of Peking University) were selected. In the experiment, 28 db/db mice were used, and the animals with blood glucose of about 7-13 mmol/L were selected. […] Intragastric administration was adopted with an administration volume of 10 ml/kg. […] The administration was performed once a day for 28 consecutive days. From the day of oral administration, the physiological changes of the animals were observed every day. Blood glucose was measured every 3 days (Roche blood glucose meter) and blood glucose difference (Δ) was calculated by the following formula: blood glucose difference (Δ)=the blood glucose of the day—the initial blood glucose (the initial blood glucose difference was zero). For mice in each experimental group, blood was collected, serum was separated, and liver was taken for wet-weight measurement after necropsy; liver tissue was taken and fixed for pathological examination, H.E. staining and oil red O staining (Wuhan Zishan Biotechnology Co., Ltd.) were performed, and mouse liver lesions were observed under light microscope; routine examination of blood was performed by Animal Laboratory Department, Health Science Center of Peking University to measure the following indexes: white blood cell count (WBC), red blood cell count (RBC), lymphocyte count (LY), platelet (PLT) and so on; biochemical laboratory examination of blood was performed by Laboratory Medicine, Third Hospital, Peking University to measure the following indexes: triglycerides (TG), total cholesterol (T-CHO), high-density lipoprotein cholesterol (HDL-C), low-density lipoprotein cholesterol (LDL-C) and so on.

Series [1] in a line: Metabolism of BJMU-2 by the liver.
The next series deals with CPT1α. Put plainly: CPT1α protein level by Western blotting in HepG2. Type of series: cell-based, human. Conditions: 1 μM, 24 hours, HepG2, Western blotting (FIG. 6A).
From the text: as §1, §2

In the next series the test system is phosphorylated GSK3β. As to the kind of experiment: Phosphorylated GSK3β level by Western blotting in HepG2. Type of series: cell-based, human. Conditions: 1 μM, 24 hours, HepG2, Western blotting (FIG. 6B).
From the text: as §1, §2

The mark [2] stands for this setting: 50 mg/kg intragastric once a day for 28 days.

On to `Cc1cc(OCCCC(C)(C)C(=O)O)c(C)cc1F` [BJMU-3, 5-(4-fluoro-2,5-dimethylphenoxy)-2,2-dimethylpentanoic acid], for which the “PPARγ mRNA expression” value with PPARγ is “significantly induced PPARγ mRNA expression”. Further, the “phosphorylation level of IRS-1” value with phosphorylated IRS-1 is recorded as “significantly increased the phosphorylation level of IRS-1”.
On to `Cc1ccc(C)c(OCCCC(C)(C)C(=O)O)c1` [gemfibrozil, Gemfibrozil, reference compound], for which the “total cholesterol content in blood (in words)” value in the series on db/db mice (setting [2]) is “did not show the activity of lowering total cholesterol in blood”. Further, in the series on db/db mice, the blood glucose level entry is recorded as “did not show obvious hypoglycemic activity”, the “AHDL (high density lipoprotein)” value is 1.64 ± 0.28 mmol/L, the “ALDL (low density lipoprotein)” value is 0.35 ± 0.02 mmol/L and the ALT was 172.25 ± 123^ U/L. Moreover, in the series on db/db mice, the AST turned out to be 225 ± 132.19 U/L, the BUN was 9.56 ± 1.57 mmol/L, the “CHOL (total cholesterol)” value is given as 3.37 ± 0.36 mmol/L and the CK amounted to 1037 ± 523.17 U/L. Also, in the series with db/db mice, the CREA came to 16 ± 10.46 µmol/L; the “TGL (triglycerides)” value is 2.09 ± 0.95 mmol/L; the “fat content in the liver (Oil red O and H.E. staining)” value is “neither gemfibrozil nor pioglitazone showed the above activity”.
In the case of `Cc1cc(OCCCC(C)(C)C(=O)O)c(C)cc1Br` [BJMU-2, 5-(4-bromo-2,5-dimethylphenoxy)-2,2-dimethylpentanoic acid], the “metabolism by the liver” value in series [1] was “could be metabolized by the liver to produce metabolites BJMU-415 and 502”. Besides, in the series on db/db mice (setting [2]), the “activity of lowering triglycerides (in words)” value was “had an activity of lowering triglycerides better than gemfibrozil” and the “total cholesterol content in blood (in words)” value is reported as “could reduce the total cholesterol content in the blood”. Besides, in the series with db/db mice, the blood glucose level entry is “could significantly reduce the blood glucose level”, the “AHDL (high density lipoprotein)” value turned out to be 1.59 ± 0.13 mmol/L, the “ALDL (low density lipoprotein)” value came out at 0.33 ± 0.09 mmol/L and the ALT is 187.75 ± 62.07 U/L. Moreover, in the series with db/db mice, the AST came to 210.75 ± 56.97 U/L, the BUN is given as 7.23 ± 1.19 mmol/L, the “CHOL (total cholesterol)” value is on record as 3.06 ± 0.63 mmol/L and the CK is 1790.75 ± 388.38 U/L. Also, in the series on db/db mice, the CREA came to 10.13 ± 5.25 µmol/L; the “TGL (triglycerides)” value is on record as 1.44 ± 0.42 mmol/L; the “fat content in the liver (Oil red O and H.E. staining)” value is on record as “could significantly reduce the fat content in the liver”. Besides, the “PPARγ mRNA expression” value in the series with PPARγ is recorded as “significantly induced PPARγ mRNA expression”. Besides, the CPT1α protein level entry with CPT1α is on record as “significantly increased CPT1α protein level”. Also, the “phosphorylation level of GSK3β” value in the series with phosphorylated GSK3β was “significantly increased the phosphorylation level of GSK3β”. For the same molecule, the “phosphorylation level of IRS-1” value in the series on phosphorylated IRS-1 is listed as “significantly increased the phosphorylation level of IRS-1”.
As for `Cc1cc(OCCCC(C)(C)C(=O)O)c(C)cc1Cl` [BJMU-1, 5-(4-chloro-2,5-dimethylphenoxy)-2,2-dimethylpentanoic acid], the CPT1α protein level result with CPT1α was “significantly increased CPT1α protein level”.
